What was measured:
A549 = experiment: Cytotoxicity against human A549 non small cell lung cell lines; format: functional, cell-based
MCF7 [1] = experiment: Cytotoxicity against adriamycin resistant human breast MCF-7 cancer cell lines; format: functional, cell-based
A121 = experiment: Cytotoxicity against human A121 ovarian cells; format: functional, cell-based
HT-29 = experiment: Cytotoxicity against human colon HT-29 cell lines; format: functional, cell-based
MCF7 [2] = experiment: Cytotoxicity against human breast MCF-7 cancer cell lines; format: functional, cell-based
P388 [3] = experiment: Microtubule disassembly inhibitory activity against murine P388 cell line relative to the activity of paclitaxel; format: functional, Mus musculus
P388 [4] = experiment: In vitro cytotoxicity against doxorubicin resistant P388 cell lines; format: functional, cell-based; conditions: Mus musculus
P388 [5] = experiment: In vitro cytotoxicity against murine P388 cell lines; format: functional, cell-based; conditions: Mus musculus
Mus musculus [6] = experiment: In vivo antitumor activity administered iv, at a concentration of 20 mg/kg/day per mouse was determined against B16 melanoma cell lines on days 5,7,9 in B6D2F1 mice; format: functional
Mus musculus [7] = species: Mus musculus; experiment: Cell kill against B16 melanoma cell lines at a concentration of 0.4 mL per mouse on days 5,7,9 in B6D2F1 mice; format: functional
Mus musculus [8] = species: Mus musculus; experiment: Time for median tumor to reach 1000 mg was determined against B16 melanoma cell lines at a concentration of 0.4 mL per mouse on days 5,7,9 in B6D2F1 mice; format: functional
Mus musculus [9] = experiment: In vivo antitumor activity administered iv, at a concentration of 12.4 mg/kg/day per mouse was determined against B16 melanoma cell lines on days 5,7,9 in B6D2F1 mice; format: functional

SMILES | IC50 (A549) | IC50 (MCF7 [1]) | IC50 (A121) | IC50 (HT-29) | IC50 (MCF7 [2]) | Ratio (P388 [3]) | IC50 (P388 [4]) | IC50 (P388 [5]) | T/C (Mus musculus [6]) | Log cell kill (Mus musculus [7]) | Median tumor (Mus musculus [8]) | T/C (Mus musculus [9])
C/C=C/[C@H](NC(=O)OC(C)(C)C)[C@@H](O)C(=O)O[C@H]1C[C@@]2(O)[C@@H](OC(=O)c3ccccc3)C3[C@](C)(C(=O)[C@H](OC(C)=O)C(=C1C)C2(C)C)[C@@H](O)C[C@H]1OC[C@@]31OC(C)=O (stereo partly specified) | 0.54 nM | 14 nM | 0.9 nM | 0.76 nM | 0.51 nM | – | – | – | – | – | – | –
CC(=O)O[C@H]1C(=O)[C@@]2(C)C([C@H](OC(=O)c3ccccc3)[C@]3(O)C[C@H](OC(=O)[C@H](O)[C@H](CC(C)C)NC(=O)OC(C)(C)C)C(C)=C1C3(C)C)[C@]1(OC(C)=O)CO[C@@H]1C[C@@H]2O (stereo partly specified) | 0.98 nM | 36 nM | 3.8 nM | 3.2 nM | 4 nM | – | – | – | – | – | – | –
CC(=O)O[C@@]12CO[C@@H]1C[C@H](O)[C@@]1(C)C(=O)[C@H](O)C3=C(C)[C@@H](OC(=O)[C@H](O)[C@H](/C=C/c4ccccc4)NC(=O)OC(C)(C)C)C[C@@](O)([C@@H](OC(=O)c4ccccc4)C12)C3(C)C (stereo partly specified) | – | – | – | – | – | 1.45 | 7490 nM | 264 nM | – | – | – | –
CC(=O)O[C@@]12CO[C@@H]1C[C@H](O)[C@@]1(C)C(=O)[C@H](O)C3=C(C)[C@@H](OC(=O)[C@H](O)[C@H](CC(C)C)NC(=O)OC(C)(C)C)C[C@@](O)([C@@H](OC(=O)c4ccccc4)C12)C3(C)C (stereo partly specified) | 0.7 nM | 12 nM | 1.9 nM | 0.63 nM | 0.55 nM | 0.78 | 1590 nM | 12.2 nM | 5% | 1.97 | 26.03 days | –
CC(=O)O[C@@]12CO[C@@H]1C[C@H](O)[C@@]1(C)C(=O)[C@H](O)C3=C(C)[C@@H](OC(=O)[C@H](O)[C@H](CC(C)(C)C)NC(=O)OC(C)(C)C)C[C@@](O)([C@@H](OC(=O)c4ccccc4)C12)C3(C)C (stereo partly specified) | – | – | – | – | – | 1.45 | 6880 nM | 125 nM | – | – | – | –
CC(=O)O[C@@]12CO[C@@H]1C[C@H](O)[C@@]1(C)C(=O)[C@H](O)C3=C(C)[C@@H](OC(=O)[C@H](O)[C@H](C=C(C)C)NC(=O)OC(C)(C)C)C[C@@](O)([C@@H](OC(=O)c4ccccc4)C12)C3(C)C (stereo partly specified) | – | – | – | – | – | 0.64 | 2360 nM | 12.8 nM | – | 2.25 | 27.54 days | 8%
CC(=O)O[C@H]1C(=O)[C@@]2(C)C([C@H](OC(=O)c3ccccc3)[C@]3(O)C[C@H](OC(=O)[C@H](O)[C@H](C=C(C)C)NC(=O)c4ccccc4)C(C)=C1C3(C)C)[C@]1(OC(C)=O)CO[C@@H]1C[C@@H]2O (stereo partly specified) | 0.45 nM | 113 nM | 1.4 nM | 0.96 nM | 0.54 nM | – | – | – | – | – | – | –
CC(=O)O[C@@]12CO[C@@H]1C[C@H](O)[C@@]1(C)C(=O)[C@H](O)C3=C(C)[C@@H](OC(=O)[C@H](O)[C@@H](NC(=O)OC(C)(C)C)c4ccccc4)C[C@@](O)([C@@H](OC(=O)c4ccccc4)[C@H]21)C3(C)C.O.O.O [DOCETAXEL] | – | – | – | – | – | 0.7 | 1860 nM | 9.9 nM | – | – | – | –
